Results taken from the supplement of paper PMC10307832.

How the values were obtained:
Test in all cases: relative viability (nuclei count vs DMSO), 5 days (fraction); higher = more cells survive
[1] = compound: CC1=CC=C(C=C1)C(=O)CN2C3=C(CCCC3)SC2=N [Pifithrin_alpha] + Nc1nc2[nH]cc(CCc3ccc(C(=O)N[C@@H](CCC(=O)O)C(=O)O)cc3)c2c(=O)[nH]1 [Pemetrexed] (partner 0.2 µM)
In short: (§1)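 Five library-drug doses in √10 steps were combined with a fixed anchor-drug dose, or a single drug was given alone, by pin tool to lung cancer cell lines in 1536-well plates the day after seeding. Nuclei were stained and counted after 5 days. Relative viability is the nuclei count in treated wells over that in vehicle wells, taken as the median of duplicate plates.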

[2] = compound: CNC(=O)c1ccccc1Sc1ccc2c(/C=C/c3ccccn3)n[nH]c2c1 [Axitinib] + NC(=O)Nc1cc(-c2cccc(F)c2)sc1C(=O)N[C@H]1CCCNC1 [AZD7762] (partner 0.2 µM)
In short: as §1

[3] = compound: Nc1nc(Nc2ccc3c(c2)CC[C@@H](N2CCCC2)CC3)nn1-c1cc2c(nn1)-c1ccccc1CCC2 [Bemcentinib] + COc1cc2c(Oc3ccc(NC(=O)C4(C(=O)Nc5ccc(F)cc5)CC4)cc3F)ccnc2cc1OCCCN1CCOCC1 [Foretinib] (partner 0.25 µM)
In short: as §1

[4] = compound: Nc1nc(Nc2ccc3c(c2)CC[C@@H](N2CCCC2)CC3)nn1-c1cc2c(nn1)-c1ccccc1CCC2 [Bemcentinib] + Cc1nc(Nc2ncc(C(=O)Nc3c(C)cccc3Cl)s2)cc(N2CCN(CCO)CC2)n1 [Dasatinib] (partner 0.075 µM)
In short: as §1

Cell Line | relative viability ([1]; first compound 1 µM) | relative viability ([1]; first compound 3.162 µM) | relative viability ([1]; first compound 10 µM) | relative viability ([1]; first compound 31.62 µM) | relative viability ([1]; first compound 100 µM) | relative viability ([2]; first compound 0.005 µM) | relative viability ([2]; first compound 0.01581 µM) | relative viability ([2]; first compound 0.05 µM) | relative viability ([2]; first compound 0.1581 µM) | relative viability ([2]; first compound 0.5 µM) | relative viability ([3]; first compound 0.04 µM) | relative viability ([3]; first compound 0.1265 µM) | relative viability ([3]; first compound 0.4 µM) | relative viability ([3]; first compound 1.265 µM) | relative viability ([3]; first compound 4 µM) | relative viability ([4]; first compound 0.04 µM) | relative viability ([4]; first compound 0.1265 µM) | relative viability ([4]; first compound 0.4 µM) | relative viability ([4]; first compound 1.265 µM) | relative viability ([4]; first compound 4 µM)
NCI-H1944 | 0.562 | 0.55 | 0.59 | 0.457 | 0.512 | 0.586 | 0.441 | 0.506 | 0.447 | 0.541 | 0.876 | 0.924 | 0.866 | 0.951 | 0.865 | 0.206 | 0.202 | 0.214 | 0.204 | 0.2
NCI-H1975 | 0.285 | 0.277 | 0.27 | 0.212 | 0.228 | 0.743 | 0.733 | 0.698 | 0.715 | 0.816 | 0.982 | 0.995 | 0.995 | 0.865 | 1.04 | 0.344 | 0.424 | 0.432 | 0.386 | 0.354
RERF-LC-KJ | 0.437 | 0.445 | 0.507 | 0.452 | 0.396 | 1 | 0.916 | 1.21 | 0.977 | 1.01 | 0.943 | 0.941 | 0.919 | 0.829 | 0.984 | 0.847 | 0.923 | 1.02 | 0.964 | 0.85
NCI-H1734 | 0.452 | 0.434 | 0.428 | 0.367 | 0.358 | 0.64 | 0.573 | 0.56 | 0.579 | 0.668 | 0.854 | 0.916 | 0.818 | 0.838 | 0.952 | 0.46 | 0.48 | 0.512 | 0.41 | 0.448
NCI-H2087 | 0.608 | 0.665 | 0.593 | 0.597 | 0.74 | 1.37 | 1.42 | 1.47 | 1.25 | 1.43 | 1.08 | 1.32 | 1.14 | 1.21 | 0.937 | 0.797 | 1.02 | 0.949 | 0.901 | 0.929
EKVX | 0.514 | 0.352 | 0.37 | 0.266 | 0.316 | 0.782 | 0.617 | 0.883 | 0.636 | 0.644 | 0.837 | 0.488 | 0.842 | 1.11 | 0.834 | 0.556 | 0.528 | 0.592 | 0.628 | 0.588
NCI-H1915 | 0.478 | 0.547 | 0.441 | – | 0.598 | 0.743 | 0.671 | 0.71 | 0.713 | 0.717 | 1.11 | 1.08 | 1.15 | 1.07 | 1.17 | 0.304 | 0.302 | 0.307 | 0.332 | 0.331
NCI-H3122 | 0.224 | 0.198 | 0.184 | 0.166 | 0.203 | 0.976 | 0.991 | 0.892 | 0.92 | 1.04 | – | 1.06 | 0.972 | 0.943 | 0.948 | – | 0.751 | 0.768 | 0.888 | 0.933
BEN | 0.523 | 0.741 | 0.741 | 0.746 | 0.629 | 0.633 | 0.622 | 0.694 | 0.68 | 0.618 | 0.562 | 0.731 | 0.711 | 0.612 | 0.635 | 0.272 | 0.37 | 0.317 | 0.22 | 0.241
201T | 0.315 | 0.337 | 0.296 | 0.29 | 0.295 | 0.626 | 0.56 | 0.593 | 0.539 | 0.59 | 1.07 | 1.33 | 1.24 | 1.12 | 1.11 | 0.559 | 0.676 | 0.591 | 0.613 | 0.57
NCI-H1666 | 0.876 | 0.784 | 0.767 | 0.617 | 0.714 | 0.836 | 0.816 | 0.879 | 0.865 | 0.84 | 0.959 | 1.26 | 1.06 | 0.856 | 0.911 | 0.755 | 0.781 | 0.806 | 0.773 | 0.781
NCI-H1993 | 0.844 | 0.547 | 0.669 | 0.452 | 0.479 | 0.819 | 0.933 | 0.746 | 0.883 | 0.818 | 0.82 | 0.76 | 0.833 | 0.764 | 0.829 | 0.571 | 0.563 | 0.625 | 0.552 | 0.577
CAL-12T | 1.31 | 1.29 | 1.1 | – | 1.19 | 0.623 | 0.576 | 0.615 | 0.564 | 0.561 | 1.17 | 1.1 | 0.97 | 1.11 | 1.07 | 0.366 | 0.356 | 0.398 | 0.45 | 0.555
NCI-H460 | 0.0605 | 0.0587 | 0.0622 | 0.0636 | 0.0898 | 0.693 | 0.576 | 0.757 | 0.636 | 1.02 | 1.01 | 1.22 | 1.1 | 1.07 | 1 | 0.452 | 0.534 | 0.562 | 0.535 | 0.551
NCI-H2170 | 0.279 | 0.296 | 0.3 | 0.234 | 0.255 | 1.13 | 0.958 | 0.948 | 0.792 | 0.87 | 0.971 | 1.16 | 1.02 | 1.03 | 0.993 | 0.485 | 0.664 | 0.603 | 0.477 | 0.589
